Experimental data: patent publication US10407467B2, “Polymyxin derivatives and their use in combination therapy together with different antibiotics” (priority 2013, dated 2019)
Counter-ions that a name gives are not always drawn. Numbered stars: 1 amine (or outer) side, 2 acyl side, 3 side chain; on linkers, the order of the positions; unused ones are H or OH. Bridge positions count the residues as written; N and C are the ends. Square brackets hold non-standard residues; d marks the D form. Peptide text beside a SMILES is read from it. * marks the point of attachment. ξ: configuration not given here. X25 = CC(O)[C@@H](C(=O)[*:2])N(CCC1(N)CCCCC1)[*:1]; Hyp = O=C(O)[C@@H]1C[C@@H](O)CN1; X24 = O=C(CCN1CCS(=O)(=O)CC1)*; Thr(3ξ) = CC(O)[C@H](N)C(=O)O; Chg = N[C@H](C(=O)O)C1CCCCC1; 4Abz = Nc1ccc(C(=O)O)cc1; Dab = NCC[C@H](N)C(=O)O

Legend:
Assay type in all cases: cell-based
[1] = tested on: Klebsiella pneumoniae; assay: MIC, compound in combination with a second agent (broth microdilution); conditions: 1:1 (wt:wt) combination with Rifampicin
Description: (§1) To evaluate the potency and spectrum of the compounds both alone and in combination with another agent, susceptibility testing was performed against up to four strains of each of the four Gram negative pathogens, Escherichia coli, Pseudomonas aeruginosa, Klebsiella pneumoniae and Acinetobacter baumannii.
(§2) Ratios of components in a combination, such as 1:1, refers to a weight to weight ratio. The minimum inhibitory concentration (MIC) refers to the total drug concentration (e.g. test compound plus second agent, such as Rifampicin).
(§3) The inoculum was prepared by making a direct suspension of isolated colonies (selected from an 18-24 hour Mueller-Hinton agar plate) adjusted to the 0.5 McFarland standard.
(§4) The assays were performed in duplicate.
(§5) In cases where the duplicate values varied by less than 2-fold, the lower of the two values is reported. If a variation of greater than 2-fold was observed, the assay was considered non-valid. Several of the compounds were subjected to multiple tests, and where this is the case, the MIC reflects the modal value obtained.
(§6) The minimum inhibitory concentration refers to the total drug concentration (e.g. test compound plus Rifampicin). The compounds are used at equal mass within the combination. The weight refers to the mass of compound as used, for example the Example Compounds are used in their TFA or sulphate salt forms.
(§7) MICs refer to the total drug concentration. Thus, where a 1:1 combination is used, this is the amount of the test compound plus the second agent. For comparison, the MIC values for the second agent alone are also given.

[2] = tested on: Pseudomonas aeruginosa; assay: as above; conditions: 1:1 (wt:wt) combination with Rifampicin
Description: as §1, §2, §3, §4, §5, §6, §7

[3] = tested on: Escherichia coli; assay: MIC, sole activity (no second agent); conditions: in the absence of Rifampicin; strain ATCC25922
Description: as §1, §3, §4, §5
(§8) MICs were determined as described herein, except that a different supplier of Cation-adjusted MHB was used. […] Values are reported relative to Polymyxin B.

[4] = tested on: Klebsiella pneumoniae; assay: MIC, sole activity (no second agent); conditions: in the absence of Rifampicin; strain ATCC 4352
Description: as §1, §3, §4, §5, §8

[5] = tested on: Pseudomonas aeruginosa; assay: MIC, sole activity (no second agent); conditions: in the absence of Rifampicin; strain ATCC27853
Description: as §1, §3, §4, §5, §8

[6] = MIC = total drug concentration, strain ATCC-BAA-2146
[7] = MIC = total drug concentration, strain CCUG-59348
[8] = MIC = total drug concentration, strain NCTC 13438
[9] = MIC = total drug concentration, strain CCUG 59626
[10] = MIC is total drug concentration

Compound	MIC K. pneumoniae ATCC-BAA-2146 [1, 6] [micrograms/mL]	MIC K. pneumoniae CCUG-59348 [1, 7] [micrograms/mL]	MIC K. pneumoniae NCTC 13438 [1, 8] [micrograms/mL]	MIC P. aeruginosa CCUG 59626 [2, 9] [micrograms/mL]	MIC E. coli ATCC25922 [3] [micrograms/mL]	MIC K. pneumoniae ATCC 4352 [4] [micrograms/mL]	MIC P. aeruginosa ATCC 27853 [5] [micrograms/mL]	MIC K. pneumoniae ATCC-BAA-2146 [1, 10] [micrograms/mL]	MIC K. pneumoniae CCUG-59348 [1, 10] [micrograms/mL]	MIC K. pneumoniae NCTC 13438 [1, 10] [micrograms/mL]	MIC P. aeruginosa CCUG 59626 [2, 10] [micrograms/mL]
CCCCCCC(O)C(=O)N[C@H](C(=O)N[C@@H](CCN)C(=O)N[C@H]1CCNC(=O)[C@H](C(C)O)NC(=O)[C@H](CCN)NC(=O)[C@H](CCN)NC(=O)[C@H](CC(C)C)NC(=O)[C@@H](CC(C)C)NC(=O)[C@H](CCN)NC1=O)C(C)O (mixture of isomers) [Example 19, 2-(RS)-2- Hydroxyoctanoyl polymyxin E nonapeptide]	2	2	0.5	1	8	8	4	–	–	–	–
CC(C)C[C@@H]1NC(=O)[C@@H](Cc2ccccc2)NC(=O)[C@H](CCN)NC(=O)[C@@H](NC(=O)[C@H](CCN)NC(=O)[C@@H](NC(=O)c2ccc(N)cc2)C(C)O)CCNC(=O)[C@H](C(C)O)NC(=O)[C@H](CCN)NC(=O)[C@H](CCN)NC1=O (some centres unmarked) [Example 5, 4-Aminobenzoyl polymyxin B nonapeptide] (H-[4Abz][Thr(3ξ)][Dab][Dab][Dab][dF]L[Dab][Dab][Thr(3ξ)]; lactam 4-C)	1	2	1	0.25	–	–	–	1	2	1	0.25
CC(C)C[C@@H]1NC(=O)[C@@H](Cc2ccccc2)NC(=O)[C@H](CCN)NC(=O)[C@@H](NC(=O)[C@H](CCN)NC(=O)[C@@H](NCCC2(N)CCCCC2)C(C)O)CCNC(=O)[C@H](C(C)O)NC(=O)[C@H](CCN)NC(=O)[C@H](CCN)NC1=O (some centres unmarked) [Example 49, N-[2-(1-aminocyclohexyl)ethyl] Polymyxin B nonapeptide] (H-[X25][Dab][Dab][Dab][dF]L[Dab][Dab][Thr(3ξ)]; lactam 3-C)	2	8	–	0.25	–	–	–	–	–	–	–

Now from value to compound, other results behind:

MIC K. pneumoniae ATCC-BAA-2146 [1, 6] [micrograms/mL]	MIC K. pneumoniae CCUG-59348 [1, 7] [micrograms/mL]	MIC K. pneumoniae NCTC 13438 [1, 8] [micrograms/mL]	MIC P. aeruginosa CCUG 59626 [2, 9] [micrograms/mL]	MIC E. coli ATCC25922 [3] [micrograms/mL]	MIC K. pneumoniae ATCC 4352 [4] [micrograms/mL]	MIC P. aeruginosa ATCC 27853 [5] [micrograms/mL]	Compound	MIC K. pneumoniae ATCC-BAA-2146 [1, 10] [micrograms/mL]	MIC K. pneumoniae CCUG-59348 [1, 10] [micrograms/mL]	MIC K. pneumoniae NCTC 13438 [1, 10] [micrograms/mL]	MIC P. aeruginosa CCUG 59626 [2, 10] [micrograms/mL]
4	16	4	0.5	–	–	–	CC(C)C[C@@H]1NC(=O)[C@@H](Cc2ccccc2)NC(=O)[C@H](CCN)NC(=O)[C@@H](NC(=O)[C@H](CCN)NC(=O)[C@@H](NC(=O)CCN2CCS(=O)(=O)CC2)C(C)O)CCNC(=O)[C@H](C(C)O)NC(=O)[C@H](CCN)NC(=O)[C@H](CCN)NC1=O (some centres unmarked) [Example 12, 3-(1,1-dioxo-thiomorpholine-4-yl)propanoyl Polymyxin B nonapeptide] (X24-[Thr(3ξ)][Dab][Dab][Dab][dF]L[Dab][Dab][Thr(3ξ)]; lactam 3-C)	–	–	–	–
4	16	4	0.5	–	–	–	CC(C)C[C@@H]1NC(=O)[C@@H](Cc2ccccc2)NC(=O)[C@H](CCN)NC(=O)[C@@H](NC(=O)[C@H](CCN)NC(=O)[C@@H](NC(=O)[C@@H]2C[C@@H](O)CN2)C(C)O)CCNC(=O)[C@H](C(C)O)NC(=O)[C@H](CCN)NC(=O)[C@H](CCN)NC1=O (stereo partly drawn) [Example 35, (2S,4R)-4-Hydroxy-2-pyrrolidine carbonyl polymyxin B nonapeptide, trifluoroacetate salt] (H-[Hyp][Thr(3ξ)][Dab][Dab][Dab][dF]L[Dab][Dab][Thr(3ξ)]; lactam 4-C)	–	–	–	–
2	8	–	0.5	–	–	–	CC(C)C[C@@H]1NC(=O)[C@@H](Cc2ccccc2)NC(=O)[C@H](CCN)NC(=O)[C@@H](NC(=O)[C@H](CCN)NC(=O)[C@@H](NC(=O)[C@@H](N)C2CCCCC2)C(C)O)CCNC(=O)[C@H](C(C)O)NC(=O)[C@H](CCN)NC(=O)[C@H](CCN)NC1=O (stereo partly drawn) [Example 40, 2-(S)-(2-amino-2-cyclohexyl)ethanoyl polymyxin B nonapeptide, trifluoroacetate salt] (H-[Chg][Thr(3ξ)][Dab][Dab][Dab][dF]L[Dab][Dab][Thr(3ξ)]; lactam 4-C)	–	–	–	–
